Assay results as given in ChEMBL document CHEMBL1131809, “1-[(Benzofuran-2-yl)phenylmethyl]-triazoles and -tetrazoles - potent competitive inhibitors of aromatase” (Bioorg Med Chem Lett, 1999).

Target: T1, Aromatase (Homo sapiens, UniProt P11511)
T1 sequence (P11511 whole entry): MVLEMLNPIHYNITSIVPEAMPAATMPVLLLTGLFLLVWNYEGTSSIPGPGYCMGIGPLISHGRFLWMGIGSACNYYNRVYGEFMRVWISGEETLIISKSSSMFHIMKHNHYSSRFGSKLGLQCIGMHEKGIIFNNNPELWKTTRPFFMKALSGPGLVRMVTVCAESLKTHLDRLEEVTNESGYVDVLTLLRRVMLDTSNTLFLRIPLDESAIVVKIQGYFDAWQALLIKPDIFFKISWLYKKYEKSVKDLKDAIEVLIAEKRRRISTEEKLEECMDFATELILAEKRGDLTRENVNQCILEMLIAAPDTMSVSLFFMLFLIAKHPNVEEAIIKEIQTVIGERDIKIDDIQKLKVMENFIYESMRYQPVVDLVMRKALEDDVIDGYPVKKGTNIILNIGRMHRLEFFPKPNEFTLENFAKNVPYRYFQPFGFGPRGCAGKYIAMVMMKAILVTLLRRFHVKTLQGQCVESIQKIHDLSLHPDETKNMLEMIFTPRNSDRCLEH
Description: Inhibition of human placental aromatase, cytochrome P450 19A1 at 20 uM

SMILES | inhibition at 20 µM [%]
c1ccc(C(c2cc3ccccc3o2)n2cncn2)cc1 (stereo not drawn) | 85.7
O=[N+]([O-])c1ccc2oc(C(c3ccccc3)n3cnnn3)cc2c1 (stereo not drawn) | 14.4
Cc1ccc(C(c2cc3ccccc3o2)n2cnnn2)cc1 (stereo not drawn) | 67.2
